Where no end group is shown, it is not given here.
Tests used:
[1] = In vitro transmetallation assay with human serum; format: in vitro ADME; details: 2 h
Description: We performed in vitro transmetallation assay according to the protocol reported previously. Briefly, ZD2-Gd3N@C80 (0.02 mM Gd/mL) was incubated with human serum for 2 h. According to previous reports, transmetallation of Gd with Zn^2+, Cu^2+ and Ca^2+ bound in serum proteins occurs rapidly and 2 h is sufficient to study the equilibrium of transmetallation. The mixtures were then centrifuged at 4000 rpm and 25° C. for 150 min using CF-10 centrifugal filters (molecular weight cutoff 10 kDa). Metal ions in both the upper reservoir and the filtrates were quantified by ICP-OES. […] The degree of transmetallation of ZD2-Gd3N@C80 with Zn^2+, Cu^2+ and Ca^2+ ions in serum was evaluated using the percentage of Zn^2+, Cu^2+ and Ca^2+ ions filtered through the membrane, calculated as Transmetallation (%)=(concentration of ions in the filtrates)/(total ion concentrations before filtration)×100. Human serum was used a control.

[2] = system: Hs578T and ZR-75-1 xenografts; assay: MRI at 7 T, mice bearing Hs578T and ZR-75-1 xenografts; format: in vivo, mouse; details: 20 μmol Gd/kg, 30 min
Description: (§1) Female athymic nude mice were purchased from the Case Comprehensive Cancer Center and housed in the Case Center Imaging Research. All animal experiments were carried out according to a protocol approved by the IACUC of Case Western Reserve University. To initiate tumour xenografts, cells cultured in 150 mm dishes were trypsinized and centrifuged. Cell pellets from each dish were suspended in 100 μL PBS and reconstituted with Corning Matrigel Matrix High Concentration (Corning, Corning, N.Y., USA) to a concentration of 2×10^7 cells/mL on ice. The suspended cells in 100 μL matrigel solution were injected subcutaneously in the flank of mice (4-6 weeks) using a 19-gauge needle. After injection, a plug in flank was formed due to matrigel gelling. Tumours were allowed to grow for at least a month before imaging. […]
(§2) MR images of the mice bearing MDA-MB-231 or MCF-7 tumour xenografts were acquired on an Aspect M3 small animal MRI scanner (1 Tesla). […] Images were exported into DICOM data, which were then processed and analyzed using Matlab (Natick, Mass., USA). The contrast-to-noise ratio of tumours in the images was calculated as the difference between tumour mean intensity minus muscle mean intensity, divided by the noise. […] The images were similarly analyzed as described above.

Size by TEM and DLS = format: physicochemical
[3] = Relaxivity measurement of gadofullerenes; format: physicochemical
Description: Infrared spectrum of ZD2-Gd3N@C80 was performed using the Cary 630 FTIR Spectrometer (Agilent Technologies, Santa Clara, Calif., USA). Lyophilized hydroxylated Gd3N@C80 or ZD2-Gd3N@C80 was reconstituted to a serial dilution in water. The solutions were pipetted in NMR tubes (500 μL in each tube), and placed in a relaxometer (Bruker) at 1.5 Tesla. For relaxivity measurement at 7 Tesla, NMR tubes containing contrast agent solutions were bundled and placed in a mouse coil in a horizontal 7 Tesla Bruker scanner (Bruker Biospin Co., Billerica, Mass.). T, maps of the solutions were acquired using a previously reported method^29. T1 and T2 values of each solution were measured. The r1 and r2 relaxivities of the contrast agent were calculated as the slope of the plot of 1/T1 and 1/T2 relaxation rates against the concentrations.

MDA-MB-231 tumours [4] = assay: MRI at 1.0 Tesla, MDA-MB-231 tumours; format: in vivo, mouse
Description: (§3) MR images of the mice bearing MDA-MB-231 or MCF-7 tumour xenografts were acquired on an Aspect M3 small animal MRI scanner (1 Tesla). Mice were placed on a holder with the temperature maintained at 37° C., with isoflurane/oxygen mixture supplied to the mice through a nose cone. A thin catheter filled with PBS was connected to the tail vein of the mice. After mice were placed in the coil, a pilot scan was performed to adjust mice to the proper location in the coil. An axial T1-weighted sequence (TR=500 ms; TE=9 ms; Flip angle=90°; Field of view=3 cm×3 cm; Matrix size=128×128×8; slice thickness=2 mm; inter-slice distance=1 mm) was then used to acquire the images of the tumours before and 10 min, 20 min, and 30 min after contrast injection. Images were exported into DICOM data, which were then processed and analyzed using Matlab (Natick, Mass., USA). The contrast-to-noise ratio of tumours in the images was calculated as the difference between tumour mean intensity minus muscle mean intensity, divided by the noise. Three-dimensional images of mice were acquired using a gradient echo T1-weighted sequence with the following parameters: TR=17 ms; TE=6 ms; Flip angle=15°; Field of view=3.5 cm×8 cm; Matrix size=128×512×16; slice thickness=1.5 mm. Analysis of the change in signal intensity in muscle, heart, liver, kidney, and bladder was performed using Matlab. MRI at 7 Tesla was performed on a horizontal Bruker scanner. T1-weighted spin echo sequence with the following parameters was used: field of view (FOV): 3 cm; slice thickness: 1.2 mm; interslice distance: 1.2 mm; TR: 500 ms, TE: 8.1 ms; flip angle: 90°; average: 2; matrix size: 128×128. The images were similarly analyzed as described above.

MCF-7 tumours [5] = assay: MRI at 1.0 Tesla, MCF-7 tumours; format: in vivo, mouse; details: 1.67 μmol/kg i.v.
Description: as §3, with “Analysis of the change in signal intensity in muscle, heart, liver, kidney, and bladder was performed using Matlab. MRI at 7 Tesla was performed on a horizontal Bruker scanner. T1-weighted spin echo sequence with the following parameters was used: field of view (FOV): 3 cm; slice thickness: 1.2 mm; interslice distance: 1.2 mm; TR: 500 ms, TE: 8.1 ms; flip angle: 90°; average: 2; matrix size: 128×128.” left out

[6] = system: BT549 and T47D xenografts; assay: MRI at 7 T, mice bearing BT549 and T47D xenografts; format: in vivo, mouse; details: 20 μmol Gd/kg, 30 min
Description: as §1, §2

Water solubility = format: physicochemical; details: gadofullerene agent
MCF-7 cells = assay: ZD2-Cy5.5 binding, 3D culture of MCF-7 cells; format: cell-based; details: 250 nM, 1 h, confocal microscopy
Description: (§4) MDA-MB-231, Hs578T, BT549, MCF-7, ZR-75-1 and T47D were acquired from American Type Culture Collection (ATCC, Rockville, Md., USA). MDA-MB-231 cells were maintained in Dulbecco Modified Eagle Medium (DMEM) supplemented with 10% fetal bovine serum (FBS) and 5% penicillin/streptomycin (pen/strep). Hs578T, BT549 and MCF-7 cells were maintained in Eagle Minimum Essential Medium (EMEM) supplemented with 0.01 mg/ml human recombinant insulin, 10% FBS and 5% pen/strep. ZR-75-1 and T47D were maintained in RPMI 1640 medium supplemented with 10% FBS and 5% pen/strep. Three-dimensional culture of cells was achieved by an “on-top” matrigel method reported previously. Briefly, on a glass-bottom plate a thick layer of matrigel was coated, followed by plating MDA-MB-231 or MCF-7 cells on top of the matrigel. Once 3D sphere or clusters formed, ZD2-Cy5.5 was added to the medium to the final concentration of 250 nM. Binding of ZD2-Cy5.5 to the 3D spheres was evaluated using a confocal laser scanning microscope (Olympus Corporation, Tokyo, Japan) after culturing for 1 h.

[7] = system: LNCaP prostate tumor xenografts; assay: Ex vivo fluorescence imaging and sections, LNCaP mouse model; format: in vivo; details: confocal microscopy
Description: (§5) After fluorescence imaging of the organs, they were embedded in O.C.T and sectioned at 5 μm thickness, and mounted on to glass slides. The slides were fixed and permeabilized with cold acetone, followed by blocking with 1% BSA for 1 hour. DAPI or EDB-FN specific antibody, BC-1 (Abcam, Cambridge, Mass.), were applied subsequently for staining. Unbound antibodies were washed with TBS-T (0.1%). Alexa Fluor 594-conjugated goat anti-mouse IgG H&L (Abcam) was used as the secondary antibody. Prolong Gold antifade solution (Invitrogen, Grand Island, N.Y.), was used to cover the slides. The stained tissue sections were imaged using confocal laser scanning microscopy.
(§6) The targeted binding of ZD2-Cy5.5 to the prostate tumor was assessed ex vivo using Maestro FLEX In vivo Imaging System (Caliper Life Sciences, Hopkinton, Mass.) using a red filter set (spectral range of 630-910 nm, 1000 ms exposure time). ZD2-Cy5.5 (10 nmol) was administered to study the in vivo distribution of ZD2-based probes. At 3 h post-injection, the mice were sacrificed to image the tumors and the organs.

MCF-7 tumours [8] = assay: Fluorescence imaging of tumour sections, MCF-7 model; details: mouse, in vivo
Description: (§7) To determine the distribution of ZD2-Cy5.5 in the major organs and tumours, 10 nmol ZD2-Cy5.5 was injected in tumour-bearing mice through the tail vein. At 3 h after injection, mice were sacrificed. Tumours and organs were collected and imaged with CSi Maestro imaging system (Woburn, Mass., USA) using the deep red filter sets (exposure time: 1000 ms).
(§8) Tumours were embedded in Optimum Cutting Temperature Compound (OCT) and kept froze in −80° C. Tumour tissues sectioned at the thickness of 5 μm were then fixed and permeabilized with cold acetone. BSA (1%) in PBS was used to block the tissue at room temperature for 1 hour. Mouse anti-EDB-FN antibody, BC-1 (ab154210, Abcam, Cambridge, Mass., USA), diluted with 1% BSA (1:500) was applied to the tissue and incubated at room temperature for 1 hour. After extensive washing, AlexFluor594-conjugated anti-mouse IgG antibody (1:500) (Invitrogen, Eugene, Oreg., USA) was applied and incubated with the tissue for 1 hour. Tissue sections were then counterstained with Prolong Gold antifade mounting medium with DAPI (Invitrogen). Confocal laser scanning microscopy (FV1000, Olympus, Japan) was used to acquire the fluorescence images of the tissues. H&E staining of the tissue was performed at the tissue resource core of Case Western Reserve University. H&E staining images were acquired using the Virtual slide microscope VS120 (Olympus).

LNCaP cell clusters = assay: ZD2-Cy5.5 binding, 3D matrigel culture of LNCaP cells; format: cell-based; details: 250 nM, 1 h
Description: (§9) All reagents for chemical synthesis were purchased from Sigma Aldrich unless stated otherwise. PC3 and LNCaP cells were purchased from American Type Culture Collection (ATCC, Manassas, Va., USA), and grown in RPMI medium (Thermo Fisher Scientific, Waltham, Mass., USA) supplemented with 10% Fetal Bovine Serum (FBS) and 1% Penn/Strep at 37° C. in 5% CO2. To construct GFP-expressing cell lines, cells were transfected with lentivirus as previously reported. Matrigel 3D culture was formed following the 3D “on-top” protocol. Briefly, a glass-bottom plate was coated with a thick layer of freshly thawed matrigel, followed by solidifying the matrigel at 37° C. for 15-30 min. Cells were then plated onto the coated plate with medium containing 5% matrigel. The culture was maintained for at least 4-6 days and then ZD2-Cy5.5 (250 nM) was added to the culture medium. After 1 h, cells in the 3D matrigel were imaged with confocal laser fluorescence microscopy.

PC3 spheroids = assay: ZD2-Cy5.5 binding, 3D matrigel culture of PC3 cells; format: cell-based; details: 250 nM, 1 h
Description: as §9

[9] = system: PC3 prostate tumor xenografts; assay: Ex vivo fluorescence imaging, PC3 mouse model; format: in vivo; details: 3 hours after intravenous injection, 10 nmol
Description: as §5, §6

MDA-MB-231 tumours [10] = assay: Fluorescence imaging of tumours, organs and sections, MDA-MB-231 model; format: in vivo, mouse
Description: as §7, §8

MDA-MB-231 spheres = assay: ZD2-Cy5.5 binding, 3D culture of MDA-MB-231 cells; format: cell-based; details: 250 nM, 1 h, confocal microscopy
Description: as §4

Substance: ZD2-Gd3N@C80: ZD2-Cys peptide conjugated to maleimido hydroxylated gadofullerene Gd3N@C80, about one peptide per cage (CTVRTSAD; also: conjugated to maleimido hydroxylated gadofullerene Gd3N@C80, about one peptide per cage)
- transmetallation [1]: < 0.12%
- signal enhancement and CNR increase in Hs578T vs ZR-75-1 tumours [2]: greater signal enhancement and significantly higher CNR increase
- average radius (Size by TEM and DLS; DLS): 1.40 nm
- average diameter (Size by TEM and DLS; TEM and DLS): 2.8 nm
- r1 relaxivity per Gd(III) ion ([3]; 1.5 Tesla): 74.6 mM⁻¹ s⁻¹
- r1 relaxivity per molecule ([3]; 1.5 Tesla): 223.8 mM⁻¹ s⁻¹
- r1 relaxivity per Gd(III) ion ([3]; 7 Tesla): 24.78 mM⁻¹ s⁻¹
- r1 relaxivity relative to clinical Gd(III)-based contrast agents ([3]; vs Gd-DTPA and Gd(HP-DO3A)): ~20 times
- signal enhancement in MDA-MB-231 tumours (MDA-MB-231 tumours [4]; 1.67 μmol/kg i.v., 1.0 Tesla, at least 30 minutes): Significant signal enhancement
- signal enhancement in MDA-MB-231 tumours with co-injection of ZD2 peptide (MDA-MB-231 tumours [4]; 1.67 μmol/kg with 25 μmol/kg ZD2 peptide): significantly reduced the signal enhancement
- increase of contrast-to-noise ratio (CNR) in MDA-MB-231 tumours (MDA-MB-231 tumours [4]; 1.67 μmol/kg, 10-30 min): 39 to 45%
- signal enhancement in MCF-7 tumours (MCF-7 tumours [5]): little enhancement
- signal enhancement and CNR increase in BT549 vs T47D tumours [6]: greater signal enhancement and significantly higher CNR increase
- water solubility (Water solubility): complete water solubility

Substance: ZD2-Cy5.5: linear ZD2 peptide with PEG spacer conjugated to Cy5.5 NHS ester (TVRTSAD; also: PEG spacer conjugated to Cy5.5 NHS ester)
- binding and fluorescence of MCF-7 cells (MCF-7 cells): lower ZD2-Cy5.5 binding and weaker fluorescence intensity
- probe in LNCaP tumor sections [7]: undetectable
- ZD2-Cy5.5 binding in MCF-7 tumour sections (MCF-7 tumours [8]): little
- binding to LNCaP cell clusters (LNCaP cell clusters): no peptide binding was detected
- binding to PC3 spheroids (PC3 spheroids): able to bind EDB-FN secreted by the PC3 spheroids
- fluorescence signal of PC3 tumors vs normal organs [9]: enhanced fluorescence signal
- fluorescence intensity in MDA-MB-231 tumours vs MCF-7 tumours and normal tissues (MDA-MB-231 tumours [10]; 0.5 μmol/kg i.v., 3 hours after injection): greater
- fluorescence signal in the liver and kidneys (MDA-MB-231 tumours [10]; 3 hours after injection): Relatively high fluorescence signal intensity
- Cy5.5 fluorescence of MDA-MB-231 tumour sections (MDA-MB-231 tumours [10]; mouse, in vivo): strong Cy5.5 fluorescence
- fluorescence of MDA-MB-231 spheres (MDA-MB-231 spheres): strong fluorescence intensity

Source: US11738099B2, “Molecular probes and methods of use” (CASE WESTERN RESERVE UNIVERSITY, priority 2014, dated 2023)
